Experiments:
Homo sapiens [1] = species on record: Homo sapiens; experiment: Liver toxicity in human assessed as induction of drug-induced liver injury by measuring severity class index
Homo sapiens [2] = species on record: Homo sapiens; experiment: Liver toxicity in human assessed as induction of drug-induced liver injury by measuring verified drug-induced liver injury concern status
For DILI severity class in this document: key of the grades not given here.

Structure (SMILES)	DILI_severity_class (Homo sapiens [1])	DILI_Concern (Homo sapiens [2])
NC(=O)CC[C@@H]1NC(=O)[C@H](Cc2ccccc2)NC(=O)[C@H](Cc2ccc(O)cc2)NC(=O)CCSSC[C@@H](C(=O)N2CCC[C@H]2C(=O)N[C@H](CCCN=C(N)N)C(=O)NCC(N)=O)NC(=O)[C@H](CC(N)=O)NC1=O [DESMOPRESSIN]	3	Ambiguous-Dili-Concern
CN(C)CC(c1ccc(O)cc1)C1(O)CCCCC1 (centres undefined) [DESVENLAFAXINE]	3	Less-Dili-Concern
C[C@@H]1C[C@H]2[C@@H]3CCC4=CC(=O)C=C[C@]4(C)[C@@]3(F)[C@@H](O)C[C@]2(C)[C@@]1(O)C(=O)CO [DEXAMETHASONE]	3	Ambiguous-Dili-Concern
CN(C)CC[C@@H](c1ccc(Br)cc1)c1ccccn1 [DEXBROMPHENIRAMINE]	0	No-Dili-Concern
CN(C)CC[C@@H](c1ccc(Cl)cc1)c1ccccn1 [DEXCHLORPHENIRAMINE]	0	No-Dili-Concern
Cc1c(OCC(F)(F)F)ccnc1C[S@@+]([O-])c1nc2ccccc2[nH]1 [DEXLANSOPRAZOLE]	4	Less-Dili-Concern
Cc1cccc([C@H](C)c2cnc[nH]2)c1C [DEXMEDETOMIDINE]	4	Ambiguous-Dili-Concern
COC(=O)[C@H](c1ccccc1)[C@H]1CCCCN1 [DEXMETHYLPHENIDATE]	7	Less-Dili-Concern
CC(C)(CO)[C@@H](O)C(=O)NCCCO [DEXPANTHENOL]	0	No-Dili-Concern
C[C@@H](CN1CC(=O)NC(=O)C1)N1CC(=O)NC(=O)C1 [DEXRAZOXANE]	4	Ambiguous-Dili-Concern
C[C@H](N)Cc1ccccc1 [DEXTROAMPHETAMINE]	0	No-Dili-Concern
COc1ccc2c(c1)[C@]13CCCC[C@@H]1[C@H](C2)N(C)CC3 [DEXTROMETHORPHAN]	0	No-Dili-Concern
OC[C@H]1OC(O)[C@H](O)[C@@H](O)[C@@H]1O (some centres undefined) [DEXTROSE]	0	No-Dili-Concern
CC(=O)Nc1c(I)c(NC(C)=O)c(I)c(C(=O)O)c1I [DIATRIZOIC ACID]	0	No-Dili-Concern
CN1C(=O)CN=C(c2ccccc2)c2cc(Cl)ccc21 [DIAZEPAM]	4	Ambiguous-Dili-Concern
CC1=NS(=O)(=O)c2cc(Cl)ccc2N1 [DIAZOXIDE]	3	Ambiguous-Dili-Concern
NS(=O)(=O)c1cc(Cl)c(Cl)c(S(N)(=O)=O)c1 [DICHLORPHENAMIDE]	0	No-Dili-Concern
O=C(O)Cc1ccccc1Nc1c(Cl)cccc1Cl [DICLOFENAC]	8	Most-Dili-Concern
Cc1onc(-c2c(Cl)cccc2Cl)c1C(=O)N[C@@H]1C(=O)N2[C@@H]1SC(C)(C)[C@@H]2C(=O)O [DICLOXACILLIN]	3	Less-Dili-Concern
CCN(CC)CCOC(=O)C1(C2CCCCC2)CCCCC1 [DICYCLOMINE]	0	No-Dili-Concern
O=c1[nH]cnc2c1ncn2[C@H]1CC[C@@H](CO)O1 [DIDANOSINE]	8	Most-Dili-Concern

Structure (SMILES)	DILI_severity_class (Homo sapiens [1])	DILI_Concern (Homo sapiens [2])
CCN(CC)C(C)C(=O)c1ccccc1 (centres undefined) [DIETHYLPROPION]	0	No-Dili-Concern
O=C(O)c1cc(-c2ccc(F)cc2F)ccc1O [DIFLUNISAL]	8	Most-Dili-Concern
C[C@H]1O[C@@H](O[C@H]2[C@@H](O)C[C@H](O[C@H]3[C@@H](O)C[C@H](O[C@H]4CC[C@@]5(C)[C@H](CC[C@@H]6[C@@H]5C[C@@H](O)[C@]5(C)[C@@H](C7=CC(=O)OC7)CC[C@]65O)C4)O[C@@H]3C)O[C@@H]2C)C[C@H](O)[C@@H]1O [DIGOXIN]	0	No-Dili-Concern
CN1C[C@H](C(=O)N[C@]2(C)O[C@@]3(O)[C@@H]4CCCN4C(=O)[C@H](Cc4ccccc4)N3C2=O)C[C@@H]2c3cccc4[nH]cc(c34)C[C@H]21 [DIHYDROERGOTAMINE]	0	No-Dili-Concern
COc1ccc([C@@H]2Sc3ccccc3N(CCN(C)C)C(=O)[C@@H]2OC(C)=O)cc1 [DILTIAZEM]	4	Most-Dili-Concern
CN(C)CCOC(c1ccccc1)c1ccccc1.Cn1c(=O)c2[nH]c(Cl)nc2n(C)c1=O [DIMENHYDRINATE]	0	No-Dili-Concern
OCC(S)CS (centres undefined) [DIMERCAPROL]	0	No-Dili-Concern
CN(C)CCOC(c1ccccc1)c1ccccc1 [DIPHENHYDRAMINE]	0	No-Dili-Concern
CCOC(=O)C1(c2ccccc2)CCN(CCC(C#N)(c2ccccc2)c2ccccc2)CC1 [DIPHENOXYLATE]	0	No-Dili-Concern
CC(C)N(CCC(C(N)=O)(c1ccccc1)c1ccccn1)C(C)C (centres undefined) [DISOPYRAMIDE]	2	Less-Dili-Concern
CC(CCc1ccc(O)cc1)NCCc1ccc(O)c(O)c1 (centres undefined) [DOBUTAMINE]	0	No-Dili-Concern
CC(=O)O[C@@]12CO[C@@H]1C[C@H](O)[C@@]1(C)C(=O)[C@H](O)C3=C(C)[C@@H](OC(=O)[C@H](O)[C@@H](NC(=O)OC(C)(C)C)c4ccccc4)C[C@@](O)([C@@H](OC(=O)c4ccccc4)[C@H]21)C3(C)C [DOCETAXEL ANHYDROUS]	3	Less-Dili-Concern
CN(CCOc1ccc(NS(C)(=O)=O)cc1)CCc1ccc(NS(C)(=O)=O)cc1 [DOFETILIDE]	0	No-Dili-Concern
O=C(O[C@@H]1C[C@@H]2C[C@H]3C[C@H](C1)N2CC3=O)c1c[nH]c2ccccc12 [DOLASETRON]	3	Ambiguous-Dili-Concern
COc1cc2c(cc1OC)C(=O)C(CC1CCN(Cc3ccccc3)CC1)C2 (centres undefined) [DONEPEZIL]	3	Less-Dili-Concern
NCCc1ccc(O)c(O)c1 [DOPAMINE]	0	No-Dili-Concern
C[C@@H](O)[C@H]1C(=O)N2C(C(=O)O)=C(S[C@@H]3CN[C@H](CNS(N)(=O)=O)C3)[C@H](C)[C@H]12 [DORIPENEM]	3	Ambiguous-Dili-Concern
CCN1CC(CCN2CCOCC2)C(c2ccccc2)(c2ccccc2)C1=O (centres undefined) [DOXAPRAM]	0	No-Dili-Concern
COc1cc2nc(N3CCN(C(=O)C4COc5ccccc5O4)CC3)nc(N)c2cc1OC (centres undefined) [DOXAZOSIN]	3	Ambiguous-Dili-Concern
CN(C)CCC=C1c2ccccc2COc2ccccc21 [DOXEPIN]	4	Less-Dili-Concern
C=C1/C(=C\C=C2/CCC[C@]3(C)[C@@H]([C@H](C)/C=C/[C@H](C)C(C)C)CC[C@@H]23)C[C@@H](O)C[C@@H]1O [DOXERCALCIFEROL]	3	Ambiguous-Dili-Concern

— ChEMBL document CHEMBL4028802, “DILIrank: the largest reference drug list ranked by the risk for developing drug-induced liver injury in humans” (Drug Discov Today, 2016)
